PubChem BioAssay (NCI)
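Grown in 96-well plates, cells were treated for 48 hours with each compound at five concentrations. Insufficient inhibition: endpoint recorded as highest concentration tested. TGI: concentration producing complete growth inhibition.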

Legend:
Assay in all cases: inhibition of tumour cell growth, NCI panel, 48 h
786-0 renal = tested on: 786-0 renal
A498 renal = tested on: A498 renal
A549 NSCLC = tested on: A549 NSCLC
ACHN renal = tested on: ACHN renal
BT-549 breast = tested on: BT-549 breast
CAKI-1 renal = tested on: CAKI-1 renal
CCRF-CEM leukemia = tested on: CCRF-CEM leukemia
COLO 205 colon = tested on: COLO 205 colon
DU-145 prostate = tested on: DU-145 prostate
EKVX NSCLC = tested on: EKVX NSCLC
HCC-2998 colon = tested on: HCC-2998 colon
HCT-116 colon = tested on: HCT-116 colon
HCT-15 colon = tested on: HCT-15 colon
HL-60(TB) leukemia = tested on: HL-60(TB) leukemia
HOP-62 NSCLC = tested on: HOP-62 NSCLC
HOP-92 NSCLC = tested on: HOP-92 NSCLC
HS 578T breast = tested on: HS 578T breast
HT29 colon = tested on: HT29 colon
IGROV1 ovarian = tested on: IGROV1 ovarian
K-562 leukemia = tested on: K-562 leukemia
KM12 colon = tested on: KM12 colon
LOX IMVI melanoma = tested on: LOX IMVI melanoma
M14 melanoma = tested on: M14 melanoma
MALME-3M melanoma = tested on: MALME-3M melanoma
MCF7 breast = tested on: MCF7 breast
MDA-MB-231 breast = tested on: MDA-MB-231 breast
MDA-MB-435 = tested on: MDA-MB-435
MDA-N = tested on: MDA-N
MOLT-4 leukemia = tested on: MOLT-4 leukemia
NCI-H226 lung = tested on: NCI-H226 lung
NCI-H23 lung = tested on: NCI-H23 lung
NCI-H460 lung = tested on: NCI-H460 lung
NCI-H522 lung = tested on: NCI-H522 lung
NCI/ADR-RES ovarian = tested on: NCI/ADR-RES ovarian
OVCAR-3 ovarian = tested on: OVCAR-3 ovarian
OVCAR-4 ovarian = tested on: OVCAR-4 ovarian
OVCAR-5 ovarian = tested on: OVCAR-5 ovarian
OVCAR-8 ovarian = tested on: OVCAR-8 ovarian
PC-3 prostate = tested on: PC-3 prostate
RPMI-8226 leukemia = tested on: RPMI-8226 leukemia
RXF 393 renal = tested on: RXF 393 renal
SF-268 CNS = tested on: SF-268 CNS
SF-295 CNS = tested on: SF-295 CNS
SF-539 CNS = tested on: SF-539 CNS
SK-MEL-2 melanoma = tested on: SK-MEL-2 melanoma
SK-MEL-28 melanoma = tested on: SK-MEL-28 melanoma
SK-MEL-5 melanoma = tested on: SK-MEL-5 melanoma
SK-OV-3 ovarian = tested on: SK-OV-3 ovarian
SN12C renal = tested on: SN12C renal
SNB-19 CNS = tested on: SNB-19 CNS
SNB-75 CNS = tested on: SNB-75 CNS
SR leukemia = tested on: SR leukemia
SW-620 colon = tested on: SW-620 colon
T-47D breast = tested on: T-47D breast
TK-10 renal = tested on: TK-10 renal
U251 CNS = tested on: U251 CNS
UACC-257 melanoma = tested on: UACC-257 melanoma
UACC-62 melanoma = tested on: UACC-62 melanoma
UO-31 renal = tested on: UO-31 renal
DLD-1 colon = tested on: DLD-1 colon
DMS 114 small cell lung = tested on: DMS 114 small cell lung
KM20L2 colon = tested on: KM20L2 colon
LXFL 529 NSCLC = tested on: LXFL 529 NSCLC
M19-MEL melanoma = tested on: M19-MEL melanoma

CCCCNc1nc(SC)nc2nc[nH]c12
TGI (786-0 renal): > 100 µM
TGI (A498 renal): > 89.2 µM
TGI (A549 NSCLC): > 100 µM
TGI (ACHN renal): > 100 µM
TGI (BT-549 breast): > 100 µM
TGI (CAKI-1 renal): > 100 µM
TGI (CCRF-CEM leukemia): > 100 µM
TGI (COLO 205 colon): > 100 µM
TGI (DU-145 prostate): > 100 µM
TGI (EKVX NSCLC): > 100 µM
TGI (HCC-2998 colon): > 100 µM
TGI (HCT-116 colon): > 100 µM
TGI (HCT-15 colon): > 100 µM
TGI (HL-60(TB) leukemia): > 100 µM
TGI (HOP-62 NSCLC): > 100 µM
TGI (HOP-92 NSCLC): > 100 µM
TGI (HS 578T breast): 21.9 µM
TGI (HT29 colon): > 100 µM
TGI (IGROV1 ovarian): > 100 µM
TGI (K-562 leukemia): > 100 µM
TGI (KM12 colon): > 100 µM
TGI (LOX IMVI melanoma): > 100 µM
TGI (M14 melanoma): > 100 µM
TGI (MALME-3M melanoma): > 100 µM
TGI (MCF7 breast): > 100 µM
TGI (MDA-MB-231 breast): > 100 µM
TGI (MDA-MB-435): > 100 µM
TGI (MDA-N): > 100 µM
TGI (MOLT-4 leukemia): > 100 µM
TGI (NCI-H226 lung): > 100 µM
TGI (NCI-H23 lung): > 100 µM
TGI (NCI-H460 lung): > 100 µM
TGI (NCI-H522 lung): > 100 µM
TGI (NCI/ADR-RES ovarian): > 100 µM
TGI (OVCAR-3 ovarian): > 100 µM
TGI (OVCAR-4 ovarian): > 100 µM
TGI (OVCAR-5 ovarian): > 100 µM
TGI (OVCAR-8 ovarian): > 100 µM
TGI (PC-3 prostate): > 100 µM
TGI (RPMI-8226 leukemia): > 100 µM
TGI (RXF 393 renal): > 100 µM
TGI (SF-268 CNS): > 100 µM
TGI (SF-295 CNS): > 100 µM
TGI (SF-539 CNS): > 100 µM
TGI (SK-MEL-2 melanoma): > 100 µM
TGI (SK-MEL-28 melanoma): > 100 µM
TGI (SK-MEL-5 melanoma): > 100 µM
TGI (SK-OV-3 ovarian): 41.9 µM
TGI (SN12C renal): > 100 µM
TGI (SNB-19 CNS): > 100 µM
TGI (SNB-75 CNS): > 100 µM
TGI (SR leukemia): > 100 µM
TGI (SW-620 colon): > 100 µM
TGI (T-47D breast): > 100 µM
TGI (TK-10 renal): > 100 µM
TGI (U251 CNS): > 100 µM
TGI (UACC-257 melanoma): > 100 µM
TGI (UACC-62 melanoma): > 100 µM
TGI (UO-31 renal): > 100 µM

O=C(Nc1cc(C(F)(F)F)ccc1Cl)C(=O)C(C(=O)c1ccc2ccccc2c1)C1OC(=O)c2ccccc21 (stereo not drawn)
TGI (786-0 renal): 17.7 µM
TGI (A498 renal): 20.8 µM
TGI (A549 NSCLC): > 100 µM
TGI (ACHN renal): > 86.7 µM
TGI (CAKI-1 renal): > 52.5 µM
TGI (CCRF-CEM leukemia): 33.7 µM
TGI (COLO 205 colon): 37.3 µM
TGI (DLD-1 colon): 36.3 µM
TGI (DMS 114 small cell lung): 52.9 µM
TGI (EKVX NSCLC): 34.8 µM
TGI (HCC-2998 colon): 22.7 µM
TGI (HCT-116 colon): 30.2 µM
TGI (HCT-15 colon): 30.1 µM
TGI (HL-60(TB) leukemia): 37.3 µM
TGI (HOP-62 NSCLC): 16.1 µM
TGI (HOP-92 NSCLC): 28.1 µM
TGI (HT29 colon): 31.7 µM
TGI (IGROV1 ovarian): > 92.5 µM
TGI (K-562 leukemia): 49.6 µM
TGI (KM12 colon): 27.4 µM
TGI (KM20L2 colon): 39.1 µM
TGI (LOX IMVI melanoma): 25.7 µM
TGI (LXFL 529 NSCLC): 20.5 µM
TGI (M14 melanoma): 25 µM
TGI (M19-MEL melanoma): 46.4 µM
TGI (MALME-3M melanoma): 27.4 µM
TGI (MOLT-4 leukemia): 9.16 µM
TGI (NCI-H226 lung): 3.36 µM
TGI (NCI-H23 lung): 17.8 µM
TGI (NCI-H460 lung): 20.7 µM
TGI (NCI-H522 lung): 20 µM
TGI (OVCAR-3 ovarian): > 50.7 µM
TGI (OVCAR-4 ovarian): > 59.3 µM
TGI (OVCAR-5 ovarian): 24.5 µM
TGI (OVCAR-8 ovarian): 24.8 µM
TGI (RPMI-8226 leukemia): > 54.5 µM
TGI (RXF 393 renal): 8.11 µM
TGI (SF-268 CNS): 52.8 µM
TGI (SF-295 CNS): 27.6 µM
TGI (SF-539 CNS): 6.94 µM
TGI (SK-MEL-2 melanoma): 28.7 µM
TGI (SK-MEL-28 melanoma): 13.1 µM
TGI (SK-MEL-5 melanoma): 22.5 µM
TGI (SK-OV-3 ovarian): > 100 µM
TGI (SN12C renal): 21 µM
TGI (SNB-19 CNS): 20.6 µM
TGI (SNB-75 CNS): 21.7 µM
TGI (SR leukemia): 14.9 µM
TGI (SW-620 colon): 37.8 µM
TGI (TK-10 renal): 40.3 µM
TGI (U251 CNS): 14.3 µM
TGI (UACC-257 melanoma): 26 µM
TGI (UACC-62 melanoma): 32.9 µM
TGI (UO-31 renal): 28.2 µM
